Reference: patent publication US12409201B2, “Care composition and use thereof” (priority 2020, dated 2025)

Assays:
[1] = system: Rat basophilic leukemia cells (RBL-2H3); assay: β-hexosaminidase level (ELISA) in A23187-stimulated RBL-2H3 cells, anti-allergy effect; format: cell-based; settings: positive control group, concentration not given; RBL-2H3, A23187 1 μg/mL; blank control = 100
Method: (§1) Rat basophilic leukemia cells (RBL-2H3) is seeded in a 96-well cell culture plate, with each well containing 5*10^4 cells. Cells are incubated in a 37-degree Celsius incubator with 5% CO2 overnight to allow attachment to the culture plate. Replace the culture medium with culture medium containing the care composition (hereinafter referred to as AMDS) of different dilution rates (1/1600, 1/800, 1/400, 1/200, and 1/100) and control groups (a blank control group and a positive control group, which is incubated in culture medium containing quercetin). After 30 minutes of incubation, A23187 (1 μg/mL) is added and allowed reaction for an hour. β-hexosaminidase level is analyzed by applying cell culture supernatant to enzyme-linked immunosorbent assay (ELISA). Replace the culture medium with that containing MTT (0.5 mg/mL), followed with 2-hour incubation. Discard the MTT-medium solution, and add DMSO (150 μL/well) to each well. Let sit in room temperature for 10 minutes, allowing the purple formazan to fully dissolve. The cell survival rate is calculated and determined by detecting the optical density (O.D.) at wavelength 570 in a spectrophotometer. Cell survival rate (%)=(sample OD570/blank control group OD570)*100%. […] The lower the β-hexosaminidase, the greater the anti-allergy effect. […]

[2] = system: Rat basophilic leukemia cells (RBL-2H3); assay: MTT cell survival rate of RBL-2H3; format: cell-based; settings: positive control group, concentration not given; RBL-2H3, MTT
Method: as §1

`O=c1c(O)c(-c2ccc(O)c(O)c2)oc2cc(O)cc(O)c12` [quercetin] was tested, and the “β-hexosaminidase (%)” value [1] was 1.8% and the “Cell survival rate (%)” value [2] was 87.97%.
